Tests used:
Conditions in all cases: alone
[1] = test system: Glomerella lagenarium syn. Colletotrichum lagenarium; assay: Glomerella lagenarium syn. Colletotrichum lagenarium (Anthracnose) liquid culture growth inhibition; type: cell-based
Experimental: (§1) Conidia of the fungus from cryogenic storage were directly mixed into nutrient broth (PDB potato dextrose broth). A DMSO solution of the test compounds was placed into a microtiter plate (96-well format) and the nutrient broth containing the fungal spores was added to it. The test plates were incubated at 24 C and the inhibition of growth was determined photometrically after 72 hrs at 620 nm.

Phakopsora pachyrhizi = Phakopsora pachyrhizi (Soybean Rust) on leaf disks of treated soybean plants; type: in vivo
Experimental: Whole soybean plants are treated with the recited active ingredients 4 weeks after planting. 1 day after spraying leaf disks are cut from the first trifoliate leaf. Five repetitions at each rate are conducted. The leaf disks are inoculated with Phakopsora pachyrhizi (Asian soybean rust) one day after treatment. Evaluation of the leaf disks is conducted 11 to 14 days after inoculation and the activity is derived from the relation of the treated vs untreated, infested check. The rates of the active ingredients used are given in Table as g active ingredient (a.i.)/ha.

Septoria tritici = Septoria tritici (Leaf Blotch) liquid culture growth inhibition; type: cell-based
Experimental: as §1, with “hrs.” for “hrs at 620 nm.”

Corynespora cassiicola = Corynespora cassiicola (Target Leaf Spot) liquid culture growth inhibition; type: cell-based
Experimental: as §1, with “3-4 days” for “72 hrs”

Septoria glycines = Septoria glycines (Brown Spot) liquid culture growth inhibition; type: cell-based
Experimental: as §1, with “visually” for “photometrically”, “hrs.” for “hrs at 620 nm.”

Botrytis cinerea = Botrytis cinerea (Gray Mould) liquid culture growth inhibition; type: cell-based
Experimental: as §1, with “hrs.” for “hrs at 620 nm.”

Sclerotinia sclerotiorum = Sclerotinia sclerotiorum (White Mold) liquid culture growth inhibition; type: cell-based
Experimental: as §1, with “Mycelial fragments” for “Conidia”, “fungus prepared” for “fungus”, “a fresh liquid culture” for “cryogenic storage”, “nm” for “nm.”

CNC(=O)C(F)(F)c1ccc(-c2noc(C(F)(F)F)n2)cc1 [2,2-Difluoro-N-methyl-2-[4-[5-(trifluoromethyl)-1,2,4-oxadiazol-3-yl]phenyl]acetamide]
Observed Activity ([1]; 0.08 ppm): 20%
Observed Activity (Phakopsora pachyrhizi; 0.3 g/ha): 0%
Observed Activity (Phakopsora pachyrhizi; 0.6 g/ha): 4%
Observed Activity (Septoria tritici; 20 ppm): 20%

N#Cc1ccc(Oc2ccc(C(F)(F)C(O)(Cn3nc[nH]c3=S)c3ccc(F)cc3F)nc2)cc1 (stereo not shown) [4-[[6-[2-(2,4-Difluorophenyl)-1,1-difluoro-2-hydroxy-3-(5-thioxo-4H-1,2,4-triazol-1-yl)propyl]-3-pyridyl]oxy]benzonitrile]
Observed Activity (Corynespora cassiicola; 0.5 ppm): 0%
Observed Activity (Corynespora cassiicola; 1 ppm): 0%
Observed Activity (Corynespora cassiicola; 2 ppm): 20%
Observed Activity (Phakopsora pachyrhizi; 30 g/ha): 0%
Observed Activity (Phakopsora pachyrhizi; 60 g/ha): 10%
Observed Activity (Septoria glycines; 1 ppm): 50%
Observed Activity (Septoria glycines; 2 ppm): 70%

CCC(=O)Oc1c(OC)ccnc1C(=O)N[C@@H](C)C(=O)O[C@@H](C)[C@@H](C)c1ccccc1C [Compound A-1.2, [(1S,2S)-1-methyl-2-(o-tolyl)propyl] (2S)-2-[(4-methoxy-3-propanoyloxy-pyridine-2-carbonyl)amino]propanoate]
Observed Activity (Botrytis cinerea; 2 ppm): 70%
Observed Activity (Corynespora cassiicola; 0.06 ppm): 0%
Observed Activity ([1]; 0.02 ppm): 0%
Observed Activity ([1]; 0.1 ppm): 0%
Observed Activity ([1]; 0.2 ppm): 0%
Observed Activity (Phakopsora pachyrhizi; 0.3 g/ha): 18%
Observed Activity (Phakopsora pachyrhizi; 0.6 g/ha): 55%
Observed Activity (Sclerotinia sclerotiorum; 0.02 ppm): 0%
Observed Activity (Sclerotinia sclerotiorum; 0.1 ppm): 0%
Observed Activity (Sclerotinia sclerotiorum; 0.2 ppm): 0%
Observed Activity (Sclerotinia sclerotiorum; 2 ppm): 70%
Observed Activity (Septoria glycines; 0.03 ppm): 20%
Observed Activity (Septoria glycines; 0.06 ppm): 20%
Observed Activity (Septoria tritici; 0.02 ppm): 20%
Observed Activity (Septoria tritici; 0.03 ppm): 50%
Observed Activity (Septoria tritici; 0.06 ppm): 70%
Observed Activity (Septoria tritici; 0.1 ppm): 70%

O=C(Nc1ccccc1F)c1ccc(-c2noc(C(F)(F)F)n2)cc1 [N-(2-fluorophenyl)-4-[5-(trifluoromethyl)-1,2,4-oxadiazol-3-yl]benzamide]
Observed Activity ([1]; 2.22 ppm): 0%
Observed Activity ([1]; 6.66 ppm): 0%
Observed Activity ([1]; 20 ppm): 0%
Observed Activity (Phakopsora pachyrhizi; 0.3 g/ha): 0%
Observed Activity (Phakopsora pachyrhizi; 0.6 g/ha): 35%
Observed Activity (Septoria tritici; 2.22 ppm): 0%
Observed Activity (Septoria tritici; 6.66 ppm): 0%
Observed Activity (Septoria tritici; 20 ppm): 0%

CNC(=S)c1ccc(-c2noc(C(F)(F)F)n2)cc1 [N-methyl-4-[5-(trifluoromethyl)-1,2,4-oxadiazol-3-yl]benzenecarbothioamide]
Observed Activity (Botrytis cinerea; 2.22 ppm): 0%
Observed Activity (Botrytis cinerea; 6.66 ppm): 20%
Observed Activity (Botrytis cinerea; 20 ppm): 70%
Observed Activity ([1]; 0.08 ppm): 70%
Observed Activity (Phakopsora pachyrhizi; 0.3 g/ha): 6%
Observed Activity (Phakopsora pachyrhizi; 0.6 g/ha): 74%
Observed Activity (Sclerotinia sclerotiorum; 20 ppm): 20%
Observed Activity (Septoria tritici; 2.22 ppm): 0%
Observed Activity (Septoria tritici; 6.66 ppm): 70%
Observed Activity (Septoria tritici; 20 ppm): 90%

CCN(C)C=Nc1cc(C)c(Oc2ccccc2)cc1Cl [N′-(2-chloro-5-methyl-4-phenoxy-phenyl)-N-ethyl-N-methyl-formamidine]
Observed Activity (Phakopsora pachyrhizi; 1.5 g/ha): 71%
Observed Activity (Phakopsora pachyrhizi; 3 g/ha): 71%
Observed Activity (Septoria glycines; 0.625 ppm): 70%
Observed Activity (Septoria tritici; 0.625 ppm): 20%

CCN(C)C=Nc1cc(C)c(Oc2ccccc2F)cc1Cl [N′-[2-chloro-4-(2-fluorophenoxy)-5-methyl-phenyl]-N-ethyl-N-methyl-formamidine]
Observed Activity (Phakopsora pachyrhizi; 1.5 g/ha): 46%
Observed Activity (Phakopsora pachyrhizi; 3 g/ha): 80%

— patent US20240008487A1, “FUNGICIDAL COMPOSITIONS” (SYNGENTA CROP PROTECTION AG, priority 2020, published 2024)
